Reference: patent US20230278972A1, “SUBSTITUTED HALOALKYL SULFONANILIDE HERBICIDES” (FMC Corporation, priority 2020, published 2023)

Columns and labels:
Type in all cases: in vivo
[1] = test system: blackgrass (Alopecurus myosuroides); experiment: Test A1 preemergence, blackgrass
In short: (§1)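 Plants grown in pots of loam/sand mix; preemergence = soil-directed spray on seeded pots, postemergence = spray at 1–2 leaves, height 2–10 cm; test chemicals formulated in non-phytotoxic solvent with surfactant.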

[2] = test system: goosegrass (Eleusine indica); experiment: Test A1 preemergence, goosegrass
In short: as §1

kochia (Bassia scoparia) [3] = experiment: Test A1 preemergence, kochia
In short: as §1

[4] = test system: Oat, Wild (wild oat, Avena fatua); experiment: Test A1 preemergence, Oat, Wild
In short: as §1

[5] = test system: Pigweed, Palmer (palmer amaranth, palmer pigweed, Amaranthus palmeri); experiment: Test A1 preemergence, Pigweed, Palmer
In short: as §1

kochia (Bassia scoparia) [6] = experiment: Test A1 postemergence, kochia; details: Postemergence
In short: (§2)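 Both timings started from seed in a loam-sand blend. Preemergence pots got a directed soil application immediately; postemergence pots were sprayed when seedlings had one or two leaves and stood 2–10 cm. Each compound was prepared in a non-phytotoxic solvent plus surfactant.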

[7] = test system: Ryegrass, Italian (Italian ryegrass, Lolium multiflorum); experiment: Test A1 postemergence, Ryegrass, Italian; details: Postemergence
In short: as §2

soybean (Glycine max) = experiment: Test A1 postemergence, soybean; details: Postemergence
In short: as §2

[8] = 31 g ai/ha, 0 to 100 scale (0 no effect, 100 complete control)
[9] = 125 g ai/ha, 0 to 100 scale, 0 no effect, 100 complete control
[10] = 31 g ai/ha, 0 to 100 scale (0 no effect, 100 complete control), 10 days

SMILES	Plant response rating, Blackgrass [1, 8]	Plant response rating, Blackgrass [1, 9]	Plant response rating, Goosegrass [2, 8]	Plant response rating, Goosegrass [2, 9]	Plant response rating, Kochia (kochia (Bassia scoparia) [3]; [8])	Plant response rating, Kochia (kochia (Bassia scoparia) [3]; [9])	Plant response rating, Oat, Wild [4, 8]	Plant response rating, Oat, Wild [4, 9]	Plant response rating, Pigweed, Palmer [5, 8]	Plant response rating, Pigweed, Palmer [5, 9]	Plant response rating, Kochia (kochia (Bassia scoparia) [6]; [10])	Plant response rating, Kochia (kochia (Bassia scoparia) [6]; 125 g ai/ha, 0 to 100 scale)	Plant response rating, Ryegrass, Italian [7, 10]	Plant response rating, Ryegrass, Italian ([7]; 125 g ai/ha, 0 to 100 scale)	Plant response rating, Soybean (soybean (Glycine max); [10])	Plant response rating, Soybean (soybean (Glycine max); 125 g ai/ha, 0 to 100 scale)
CCC1ON=C(c2cc(N(C(=O)OCC(C)C)S(=O)(=O)C(F)(F)F)c(C)cc2C)C1CC (stereo not drawn) [Compound 348]	30	70	30	90	0	30	0	10	10	90	20	70	0	40	50	90
Cc1cc(C)c(C2=NOC3OCCC23)cc1NS(=O)(=O)C(F)(F)F (stereo not drawn) [Compound 349]	50	80	90	100	80	100	10	50	100	100	70	80	60	90	30	70
CCOC(=O)N(c1cc(C(=O)N2CCC(F)(F)CC2)c(C)cc1C)S(=O)(=O)C(F)(F)F [Compound 351]	10	50	40	100	20	90	10	30	80	90	10	30	20	50	30	50
Cc1cc(C)c(N(COC(=O)C(C)(C)C)S(=O)(=O)C(F)(F)F)cc1C1=NOC2OCCC12 (stereo not drawn) [Compound 352]	20	40	90	100	30	100	0	20	70	100	50	70	0	90	20	60
Cc1cc(C)c(N(COC(=O)C(C)(C)C)S(=O)(=O)C(F)(F)F)cc1C(=O)N1CCC(C)CC1 [Compound 353]	0	0	20	70	0	20	0	0	30	40	10	50	0	0	50	60
CCOC(=O)N(c1cc(C(=O)N2CCC(C)CC2)c(C)cc1C)S(=O)(=O)C(F)(F)F [Compound 354]	0	0	70	100	0	20	0	0	10	50	40	50	0	40	50	60
Cc1cc(C2CC2)c(C2=NOC3CCCC23)cc1N(COC(=O)C(C)(C)C)S(=O)(=O)C(F)(F)F (stereo not drawn) [Compound 355]	0	0	20	90	0	0	0	0	0	70	0	50	30	40	10	40
Cc1c(NS(=O)(=O)C(F)(F)F)cc(C(=O)N2CCC(F)CC2)c(C)c1C [Compound 358]	0	10	30	100	20	30	0	10	90	90	0	70	20	20	50	70
Cc1c(C(=O)N2CCC(Cl)CC2)cc(N(COC(=O)C(C)(C)C)S(=O)(=O)C(F)(F)F)c(C)c1C [Compound 359]	0	0	0	90	0	0	0	0	0	20	30	40	0	0	50	60
Cc1c(C(=O)N2CCC(F)CC2)cc(N(COC(=O)C(C)(C)C)S(=O)(=O)C(F)(F)F)c(C)c1C [Compound 361]	0	0	10	100	0	30	0	0	0	20	0	50	0	0	50	70
Cc1cc(C)c(N(COC(=O)C(C)(C)C)S(=O)(=O)C(F)(F)F)cc1C(=O)N1CCOCC1 [Compound 362]	10	50	90	100	50	90	0	30	10	80	50	80	30	90	50	70
Cc1cc(C)c(N(COC(=O)C(C)(C)C)S(=O)(=O)C(F)(F)F)cc1C(=O)N1CCC(c2ccccc2)CC1 [Compound 364]	0	0	0	0	0	0	0	0	0	0	0	30	0	0	0	10
